Source: US9745310B2 (SK BIOPHARMACEUTICALS CO., LTD., priority 2015, dated 2017)

Target: human mGluR5 receptor (Homo sapiens (Human), UniProt P41594)
Assay: Calcium influx assay based on fluorescence (mGluR5 PAM activity)
Conditions: human mGluR5 receptor-overexpressed HEK293 cell line; L-glutamate EC20; Fluo-4, FLIPR
Procedure, shortened: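 HEK293 cells overexpressing human mGluR5, loaded 1 h with Fluo-4 at 37° C. Compounds (10 μM to 10 nM final, 0.1–0.2% DMSO) added with an EC20 concentration of L-glutamate, and Ca2+ response read by FLIPR at room temperature. Activity scaled as 0% for EC20 glutamate alone and 100% for glutamate maximum.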

Sequence of human mGluR5 receptor (P41594 21-1212): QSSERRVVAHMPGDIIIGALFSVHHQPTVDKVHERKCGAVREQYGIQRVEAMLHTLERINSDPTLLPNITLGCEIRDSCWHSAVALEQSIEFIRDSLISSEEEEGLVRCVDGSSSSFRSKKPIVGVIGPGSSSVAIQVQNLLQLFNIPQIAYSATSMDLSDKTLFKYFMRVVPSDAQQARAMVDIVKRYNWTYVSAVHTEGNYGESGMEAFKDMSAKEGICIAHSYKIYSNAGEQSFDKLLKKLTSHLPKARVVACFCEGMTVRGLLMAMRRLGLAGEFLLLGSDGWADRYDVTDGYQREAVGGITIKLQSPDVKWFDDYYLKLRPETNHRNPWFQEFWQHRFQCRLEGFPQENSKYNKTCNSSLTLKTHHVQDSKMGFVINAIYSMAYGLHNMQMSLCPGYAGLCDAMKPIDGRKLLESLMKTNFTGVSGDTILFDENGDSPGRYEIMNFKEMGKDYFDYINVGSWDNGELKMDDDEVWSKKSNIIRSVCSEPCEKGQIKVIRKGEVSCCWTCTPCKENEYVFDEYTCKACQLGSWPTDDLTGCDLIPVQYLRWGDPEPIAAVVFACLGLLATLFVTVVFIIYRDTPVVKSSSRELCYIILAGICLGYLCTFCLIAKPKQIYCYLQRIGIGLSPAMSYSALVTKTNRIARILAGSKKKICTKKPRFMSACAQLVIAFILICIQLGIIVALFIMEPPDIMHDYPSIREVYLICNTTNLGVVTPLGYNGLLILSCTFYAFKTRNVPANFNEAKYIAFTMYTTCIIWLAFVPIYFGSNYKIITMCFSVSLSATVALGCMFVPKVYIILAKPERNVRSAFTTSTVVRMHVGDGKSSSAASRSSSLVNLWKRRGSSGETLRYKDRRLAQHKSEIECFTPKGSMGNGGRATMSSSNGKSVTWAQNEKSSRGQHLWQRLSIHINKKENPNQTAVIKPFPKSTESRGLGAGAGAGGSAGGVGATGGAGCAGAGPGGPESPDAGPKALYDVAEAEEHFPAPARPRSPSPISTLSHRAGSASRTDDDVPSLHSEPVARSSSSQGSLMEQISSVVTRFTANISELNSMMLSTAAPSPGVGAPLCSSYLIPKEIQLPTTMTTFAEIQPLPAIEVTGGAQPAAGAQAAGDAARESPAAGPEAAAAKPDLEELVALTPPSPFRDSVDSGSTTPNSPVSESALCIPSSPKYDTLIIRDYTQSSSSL

SMILES | EC50 [nM]
Fc1cccc(OCc2cn3cc(-c4ccc(F)cc4F)cnc3n2)c1 [Example 41, 6-(2,4-difluorophenyl)-2-(3-fluorophenoxymethyl)imidazo[1,2-a]pyrimidine] | 100 to 500
Fc1ccccc1-c1cnc2nc(COc3ccccc3)cn2c1 [Example 1, 6-(2-fluorophenyl)-2-phenoxymethylimidazo[1,2-a]pyrimidine] | 100 to 500
Fc1ncccc1-c1cnc2nc(COc3ccccc3)cn2c1 [Example 29, 6-(2-fluoropyridin-3-yl)-2-phenoxymethylimidazo[1,2-a]pyrimidine] | 100 to 500
Oc1ccccc1-c1cnc2nc(COc3ccccc3)cn2c1 [Example 16, 6-(2-hydroxyphenyl)-2-phenoxymethylimidazo[1,2-a]pyrimidine] | 500 to 1000
Cc1ccc(N)c(-c2cnc3nc(COc4cccc(F)c4)cn3c2)c1 [Example 100, 2-[2-[(3-fluorophenoxy)methyl]imidazo[1,2-a]pyrimidin-6-yl]-4-methyl-aniline] | 500 to 1000
Fc1ccc(-c2cnc3nc(COc4ccccn4)cn3n2)c(C(F)(F)F)c1 [Example 186, 2-[4-fluoro-2-(trifluoromethyl)phenyl]-6-(2-pyridyloxymethyl)imidazo[1,2-b][1,2,4]triazine] | 100 to 500
Oc1cc(-c2cnc3nc(COc4ccc(F)cc4)cn3c2)ccc1F [Example 55, 2-fluoro-5-[2-[(4-fluorophenoxy)methyl]imidazo[1,2-a]pyrimidin-6-yl]phenol] | 100 to 500
Cc1cc(F)ccc1-c1cnc2nc(COc3cccc(F)n3)cn2n1 [Example 191] | 500 to 1000
Fc1ccc(-c2cnc3nc(COc4ccnc(F)c4)cn3n2)c(F)c1 [Example 183, 2-(2,4-difluorophenyl)-6-((2-fluoropyridin-4-yloxy)methyl)imidazo[1,2-b][1,2,4]triazine] | 100 to 500

The next lines start with the values.

EC50 [nM] | SMILES
100 to 500 | Fc1ccc(-c2cnc3nc(COc4ccccc4)cn3c2)c(Cl)c1 [Example 15, 6-(2-chloro-4-fluorophenyl)-2-phenoxymethylimidazo[1,2-a]pyrimidine]
500 to 1000 | COc1ccc(-c2cnc3nc(COc4ccc(F)cc4)cn3c2)cc1N [Example 84, 5-[2-[(4-fluorophenoxy)methyl]imidazo[1,2-a]pyrimidin-6-yl]-2-methoxy-aniline]
100 to 500 | Nc1cc(F)ccc1-c1cnc2nc(COc3ccc(F)cc3)cn2c1 [Example 77, 5-fluoro-2-[2-[(4-fluorophenoxy)methyl]imidazo[1,2-a]pyrimidin-6-yl]aniline]
100 to 500 | COc1cc(C#N)ccc1-c1cnc2nc(COc3ccc(F)cn3)cn2c1 [Example 137, 4-[2-[(5-fluoro-2-pyridyl)oxymethyl]imidazo[1,2-a]pyrimidin-6-yl]-3-methoxy-benzonitrile]
100 to 500 | Oc1cc(F)ccc1-c1cnc2nc(COc3ccnc(F)c3)cn2c1 [Example 167, 6-(4-fluoro-2-hydroxyphenyl)-2-(2-fluoropyridin-4-yloxymethyl)imidazo[1,2-a]pyrimidine]
100 to 500 | COc1cc(F)ccc1-c1cnc2nc(COc3cncc(F)c3)cn2c1 [Example 155, 6-(4-fluoro-2-methoxyphenyl)-2-(5-fluoropyridin-3-yloxymethyl)imidazo[1,2-a]pyrimidine]
100 to 500 | Fc1ccc(OCc2cn3cc(-c4ccc(C(F)(F)F)nc4)cnc3n2)nc1 [Example 131, 2-[(5-fluoro-2-pyridyl)oxymethyl]-6-[6-(trifluoromethyl)-3-pyridyl]imidazo[1,2-a]pyrimidine]
100 to 500 | Fc1ccc(OCc2cn3cc(-c4cnc(F)c(F)c4)cnc3n2)cc1 [Example 83, 6-(5,6-difluoro-3-pyridyl)-2-[(4-fluorophenoxy)methyl]imidazo[1,2-a]pyrimidine]
100 to 500 | Nc1cc(F)ccc1-c1cnc2nc(COc3ccccc3)cn2c1 [Example 27, 6-(2-amino-4-fluorophenyl)-2-phenoxymethylimidazo[1,2-a]pyrimidine]
